Measurements as given in patent US9663502B2, “2-Acylamidomethyl and sulfonylamidomethyl benzoxazine carbamates for inhibition of RORgamma activity and the treatment of disease” (Merck Sharp & Dohme Corp., priority 2013, dated 2017).

Target: human RORgammaT-Ligand Binding Domain (LBD) (Homo sapiens (Human), UniProt P51449)
Test: RORγ-Ligand Binding Domain TR-FRET Assay (co-activator peptide SRC1_2 recruitment)
Assay type: biochemical

Sequence of human RORgammaT-Ligand Binding Domain (LBD) (P51449 269-508): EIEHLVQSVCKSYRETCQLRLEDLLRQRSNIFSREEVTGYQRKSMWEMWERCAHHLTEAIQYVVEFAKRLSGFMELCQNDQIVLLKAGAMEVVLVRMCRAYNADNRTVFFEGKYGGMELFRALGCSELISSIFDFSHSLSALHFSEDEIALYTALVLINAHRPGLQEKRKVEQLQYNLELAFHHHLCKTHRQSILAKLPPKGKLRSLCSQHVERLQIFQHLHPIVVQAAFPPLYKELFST

IC50: 113 nM
SMILES: CC(=O)NC[C@H]1CN(S(=O)(=O)c2ccc(F)cc2)c2cc(NC(=O)OC(C3CCCCC3)C(F)(F)F)ccc2O1 (stereo partly drawn) [Example 23D, 1-cyclohexyl-2,2,2-trifluoroethyl ((S)-2-(acetamidomethyl)-4-((4-fluorophenyl)sulfonyl)-3,4-dihydro-2H-benzo[b][1,4]oxazin-6-yl)carbamate]
